The test system of the experiment is Agaricus bisporus mycelium. Put plainly: Stimulation of the growth of Agaricus bisporus mycelium on PDA culture medium. The conditions noted are these: for effect on the growth of the Agaricus bisporus mycelium: purified terpene at 40 μL/L, TripleX make (Amycel). It counts as cell-based. On the procedure:
• Mixing, in a sterile container, the essential oil or oils or the terpene or terpenes selected according to the invention, with the surfactant or surfactants, in equal portions: […], therefore preparing 200 μl in total.
• Preparing 2 times 1 litre of PDA in accordance with the instructions of the supplier, in separate containers. • Sterilising the two solutions at the same time, 15 minutes at 121° C. in an autoclave.
• Waiting until the two solutions drop in temperature, to reach approximately 40° C. • Homogenising and then pouring the composition of biostimulants, into one of the two containers. • Pouring the same volume of the surfactant or surfactants used, into the second container. • Placing under stirring, and then pouring the 2 litres of solutions into annotated petri dishes. • Placing the petri dishes in an incubator at 23° C.±1° C. and 80% humidity.
• Inoculating all the petri dishes with the mushroom strain selected. • Re-placing the petri dishes in an incubator at 23° C.±1° C. and 80% humidity.
• After 7 days, tracing the contour of the mycelium under the petri dishes, with a fine marker. • Once again tracing the contour of the mycelium after 14 and 21 days following the inoculation. • Measuring its growth to within 0.5 mm, on 4 axes separated by 90°, for each petri dish. • Calculating the mean growths measured, then determining the percentage inhibition or biostimulation compared with the reference, which contains only the surfactant or surfactants, without the essential oil or oils or the terpene and terpenes use.
The manipulations for each essential oil tested were reproduced 40 times, using the Agaricus bisporus mycelium of Heirloom make, supplied by the American company Amycel.
The tests were performed on three strains of Agaricus bisporus (of Heirloom and TripleX makes from the company Amycel and Tuscan from the company Sylvan) with the purified terpene ([…]. […]

Structures are written as SMILES.

Regarding `C=C1CCC2CC1C2(C)C` (stereo not drawn) [β-pinene], the “effect on the growth of the Agaricus bisporus mycelium” value was “biostimulant effect”. Moreover, where the note is “purified terpene, Heirloom and TripleX makes at 40 or 80 μL/L, Tuscan make at 80 or 100 μL/L, effect reinforced by increasing the concentration”, the “effect on the growth of the mycelia of three strains of Agaricus bisporus” value is on record as “very marked effect of biostimulation”. For `CC1=CCC2CC1C2(C)C` (stereo not drawn) [α-pinene, reference compound], the “effect on the growth of the Agaricus bisporus mycelium” value was “inhibiting effect”.

The values above are taken from patent US20240268380A1, “USE OF ESSENTIAL OILS AS BIOSTIMULANTS FOR MYCELIA AND MUSHROOMS” (MYCELIANCE, priority 2021, published 2024).
